Key:
Conditions in all cases: three weeks after treatment
Hordeum vulgare [1] = experiment: Pre-emergence herbicidal evaluation, HORVW; format: in vivo
Text: (§1) The treated pots are then placed on greenhouse benches, watered and cared for in accordance with conventional greenhouse procedures.

Triticum aestivum [2] = experiment: Post-emergence herbicidal evaluation, TRZAW
Amaranthus tuberculatus [3] = experiment: Pre-emergence herbicidal evaluation, AMATA; format: in vivo
Text: as §1

Alopecurus myosuroides [4] = experiment: Pre-emergence herbicidal evaluation, ALOMY; format: in vivo
Text: as §1

Echinochloa crus-galli [5] = experiment: Post-emergence herbicidal evaluation, ECHCG
Triticum aestivum [6] = experiment: Pre-emergence herbicidal evaluation, TRZAW; format: in vivo
Text: as §1

Lolium perenne [7] = experiment: Post-emergence herbicidal evaluation, LOLPE
Galium aparine [8] = experiment: Post-emergence herbicidal evaluation, GALAP
Galium aparine [9] = experiment: Pre-emergence herbicidal evaluation, GALAP; format: in vivo
Text: as §1

Oryza sativum [10] = experiment: Post-emergence herbicidal evaluation, ORYSA
Alopecurus myosuroides [11] = experiment: Post-emergence herbicidal evaluation, ALOMY
Hordeum vulgare [12] = experiment: Post-emergence herbicidal evaluation, HORVW
Zea mays [13] = experiment: Post-emergence herbicidal evaluation, ZEAMX
Apera spica venti [14] = experiment: Pre-emergence herbicidal evaluation, APESV; format: in vivo
Text: as §1

Echinochloa crus-galli [15] = experiment: Pre-emergence herbicidal evaluation, ECHCG; format: in vivo
Text: as §1

Zea mays [16] = experiment: Pre-emergence herbicidal evaluation, ZEAMX; format: in vivo
Text: as §1

Glycine max [17] = experiment: Pre-emergence herbicidal evaluation, GLXMA; format: in vivo
Text: as §1

Amaranthus tuberculatus [18] = experiment: Post-emergence herbicidal evaluation, AMATA; format: in vivo
Lolium perenne [19] = experiment: Pre-emergence herbicidal evaluation, LOLPE; format: in vivo
Text: as §1

Setaria viridis [20] = experiment: Post-emergence herbicidal evaluation, SETVI
Setaria viridis [21] = experiment: Pre-emergence herbicidal evaluation, SETVI; format: in vivo
Text: as §1

Apera spica venti [22] = experiment: Post-emergence herbicidal evaluation, APESV
Oryza sativum [23] = experiment: Pre-emergence herbicidal evaluation, ORYSA; format: in vivo
Text: as §1

Glycine max [24] = experiment: Post-emergence herbicidal evaluation, GLXMA

Structure (SMILES): CCN(C(=O)COc1nc2ccccc2o1)C1=CC(C)(C)CC(C)=C1 [Example 2]
- phytotoxicity rating HORVW (Hordeum vulgare [1]; 0.100 kg/ha): 0 (0 - No effect)
- phytotoxicity rating HORVW (Hordeum vulgare [1]; 0.200 kg/ha): 2 (2 - Slight effect)
- phytotoxicity rating HORVW (Hordeum vulgare [1]; 0.400 kg/ha): 2 (2 - Slight effect)
- phytotoxicity rating HORVW (Hordeum vulgare [1]; 0.800 kg/ha): 3 (3 - Moderate effect)
- phytotoxicity rating TRZAW (Triticum aestivum [2]; 0.100 kg/ha): 0 (0 - No effect)
- phytotoxicity rating TRZAW (Triticum aestivum [2]; 0.200 kg/ha): 0 (0 - No effect)
- phytotoxicity rating TRZAW (Triticum aestivum [2]; 0.400 kg/ha): 1 (1 - Trace effect)
- phytotoxicity rating AMATA (Amaranthus tuberculatus [3]; 0.100 kg/ha): 2 (2 - Slight effect)
- phytotoxicity rating AMATA (Amaranthus tuberculatus [3]; 0.200 kg/ha): 6 (6 - Herbicidal effect)
- phytotoxicity rating AMATA (Amaranthus tuberculatus [3]; 0.400 kg/ha): 8 (8 - Approaching complete kill)
- phytotoxicity rating AMATA (Amaranthus tuberculatus [3]; 0.800 kg/ha): 8 (8 - Approaching complete kill)
- phytotoxicity rating ALOMY (Alopecurus myosuroides [4]; 0.100 kg/ha): 1 (1 - Trace effect)
- phytotoxicity rating ALOMY (Alopecurus myosuroides [4]; 0.200 kg/ha): 5 (5 - Definite injury)
- phytotoxicity rating ALOMY (Alopecurus myosuroides [4]; 0.400 kg/ha): 6 (6 - Herbicidal effect)
- phytotoxicity rating ALOMY (Alopecurus myosuroides [4]; 0.800 kg/ha): 6 (6 - Herbicidal effect)
- phytotoxicity rating ECHCG (Echinochloa crus-galli [5]; 0.100 kg/ha): 1 (1 - Trace effect)
- phytotoxicity rating ECHCG (Echinochloa crus-galli [5]; 0.200 kg/ha): 2 (2 - Slight effect)
- phytotoxicity rating ECHCG (Echinochloa crus-galli [5]; 0.400 kg/ha): 8 (8 - Approaching complete kill)
- phytotoxicity rating TRZAW (Triticum aestivum [6]; 0.100 kg/ha): 0 (0 - No effect)
- phytotoxicity rating TRZAW (Triticum aestivum [6]; 0.200 kg/ha): 0 (0 - No effect)
- phytotoxicity rating TRZAW (Triticum aestivum [6]; 0.400 kg/ha): 2 (2 - Slight effect)
- phytotoxicity rating TRZAW (Triticum aestivum [6]; 0.800 kg/ha): 2 (2 - Slight effect)
- phytotoxicity rating LOLPE (Lolium perenne [7]; 0.100 kg/ha): 5 (5 - Definite injury)
- phytotoxicity rating LOLPE (Lolium perenne [7]; 0.200 kg/ha): 7 (7 - Good herbicidal effect)
- phytotoxicity rating LOLPE (Lolium perenne [7]; 0.400 kg/ha): 8 (8 - Approaching complete kill)
- phytotoxicity rating GALAP (Galium aparine [8]; 0.100 kg/ha): 0 (0 - No effect)
- phytotoxicity rating GALAP (Galium aparine [8]; 0.200 kg/ha): 2 (2 - Slight effect)
- phytotoxicity rating GALAP (Galium aparine [8]; 0.400 kg/ha): 3 (3 - Moderate effect)
- phytotoxicity rating GALAP (Galium aparine [9]; 0.100 kg/ha): 0 (0 - No effect)
- phytotoxicity rating GALAP (Galium aparine [9]; 0.200 kg/ha): 0 (0 - No effect)
- phytotoxicity rating GALAP (Galium aparine [9]; 0.400 kg/ha): 0 (0 - No effect)
- phytotoxicity rating GALAP (Galium aparine [9]; 0.800 kg/ha): 0 (0 - No effect)
- phytotoxicity rating ORYSA (Oryza sativum [10]; 0.100 kg/ha): 0 (0 - No effect)
- phytotoxicity rating ORYSA (Oryza sativum [10]; 0.200 kg/ha): 0 (0 - No effect)
- phytotoxicity rating ORYSA (Oryza sativum [10]; 0.400 kg/ha): 1 (1 - Trace effect)
- phytotoxicity rating ALOMY (Alopecurus myosuroides [11]; 0.100 kg/ha): 0 (0 - No effect)
- phytotoxicity rating ALOMY (Alopecurus myosuroides [11]; 0.200 kg/ha): 4 (4 - Injury)
- phytotoxicity rating ALOMY (Alopecurus myosuroides [11]; 0.400 kg/ha): 7 (7 - Good herbicidal effect)
- phytotoxicity rating HORVW (Hordeum vulgare [12]; 0.100 kg/ha): 1 (1 - Trace effect)
- phytotoxicity rating HORVW (Hordeum vulgare [12]; 0.200 kg/ha): 2 (2 - Slight effect)
- phytotoxicity rating HORVW (Hordeum vulgare [12]; 0.400 kg/ha): 2 (2 - Slight effect)
- phytotoxicity rating ZEAMX (Zea mays [13]; 0.100 kg/ha): 0 (0 - No effect)
- phytotoxicity rating ZEAMX (Zea mays [13]; 0.200 kg/ha): 0 (0 - No effect)
- phytotoxicity rating ZEAMX (Zea mays [13]; 0.400 kg/ha): 0 (0 - No effect)
- phytotoxicity rating APESV (Apera spica venti [14]; 0.100 kg/ha): 1 (1 - Trace effect)
- phytotoxicity rating APESV (Apera spica venti [14]; 0.200 kg/ha): 6 (6 - Herbicidal effect)
- phytotoxicity rating APESV (Apera spica venti [14]; 0.400 kg/ha): 9 (9 - Complete kill)
- phytotoxicity rating APESV (Apera spica venti [14]; 0.800 kg/ha): 9 (9 - Complete kill)
- phytotoxicity rating ECHCG (Echinochloa crus-galli [15]; 0.100 kg/ha): 3 (3 - Moderate effect)
- phytotoxicity rating ECHCG (Echinochloa crus-galli [15]; 0.200 kg/ha): 5 (5 - Definite injury)
- phytotoxicity rating ECHCG (Echinochloa crus-galli [15]; 0.400 kg/ha): 8 (8 - Approaching complete kill)
- phytotoxicity rating ECHCG (Echinochloa crus-galli [15]; 0.800 kg/ha): 9 (9 - Complete kill)
- phytotoxicity rating ZEAMX (Zea mays [16]; 0.100 kg/ha): 0 (0 - No effect)
- phytotoxicity rating ZEAMX (Zea mays [16]; 0.200 kg/ha): 0 (0 - No effect)
- phytotoxicity rating ZEAMX (Zea mays [16]; 0.400 kg/ha): 0 (0 - No effect)
- phytotoxicity rating ZEAMX (Zea mays [16]; 0.800 kg/ha): 1 (1 - Trace effect)
- phytotoxicity rating GLXMA (Glycine max [17]; 0.100 kg/ha): 0 (0 - No effect)
- phytotoxicity rating GLXMA (Glycine max [17]; 0.200 kg/ha): 0 (0 - No effect)
- phytotoxicity rating GLXMA (Glycine max [17]; 0.400 kg/ha): 0 (0 - No effect)
- phytotoxicity rating GLXMA (Glycine max [17]; 0.800 kg/ha): 0 (0 - No effect)
- phytotoxicity rating AMATA (Amaranthus tuberculatus [18]; 0.100 kg/ha): 5 (5 - Definite injury)
- phytotoxicity rating AMATA (Amaranthus tuberculatus [18]; 0.200 kg/ha): 6 (6 - Herbicidal effect)
- phytotoxicity rating AMATA (Amaranthus tuberculatus [18]; 0.400 kg/ha): 6 (6 - Herbicidal effect)
- phytotoxicity rating LOLPE (Lolium perenne [19]; 0.100 kg/ha): 0 (0 - No effect)
- phytotoxicity rating LOLPE (Lolium perenne [19]; 0.200 kg/ha): 2 (2 - Slight effect)
- phytotoxicity rating LOLPE (Lolium perenne [19]; 0.400 kg/ha): 8 (8 - Approaching complete kill)
- phytotoxicity rating LOLPE (Lolium perenne [19]; 0.800 kg/ha): 9 (9 - Complete kill)
- phytotoxicity rating SETVI (Setaria viridis [20]; 0.100 kg/ha): 0 (0 - No effect)
- phytotoxicity rating SETVI (Setaria viridis [20]; 0.200 kg/ha): 2 (2 - Slight effect)
- phytotoxicity rating SETVI (Setaria viridis [20]; 0.400 kg/ha): 6 (6 - Herbicidal effect)
- phytotoxicity rating SETVI (Setaria viridis [21]; 0.100 kg/ha): 1 (1 - Trace effect)
- phytotoxicity rating SETVI (Setaria viridis [21]; 0.200 kg/ha): 4 (4 - Injury)
- phytotoxicity rating SETVI (Setaria viridis [21]; 0.400 kg/ha): 7 (7 - Good herbicidal effect)
- phytotoxicity rating SETVI (Setaria viridis [21]; 0.800 kg/ha): 8 (8 - Approaching complete kill)
- phytotoxicity rating APESV (Apera spica venti [22]; 0.100 kg/ha): 6 (6 - Herbicidal effect)
- phytotoxicity rating APESV (Apera spica venti [22]; 0.200 kg/ha): 7 (7 - Good herbicidal effect)
- phytotoxicity rating APESV (Apera spica venti [22]; 0.400 kg/ha): 7 (7 - Good herbicidal effect)
- phytotoxicity rating ORYSA (Oryza sativum [23]; 0.100 kg/ha): 0 (0 - No effect)
- phytotoxicity rating ORYSA (Oryza sativum [23]; 0.200 kg/ha): 0 (0 - No effect)
- phytotoxicity rating ORYSA (Oryza sativum [23]; 0.400 kg/ha): 0 (0 - No effect)
- phytotoxicity rating ORYSA (Oryza sativum [23]; 0.800 kg/ha): 2 (2 - Slight effect)
- phytotoxicity rating GLXMA (Glycine max [24]; 0.100 kg/ha): 5 (5 - Definite injury)
- phytotoxicity rating GLXMA (Glycine max [24]; 0.200 kg/ha): 7 (7 - Good herbicidal effect)
- phytotoxicity rating GLXMA (Glycine max [24]; 0.400 kg/ha): 7 (7 - Good herbicidal effect)
